Columns and labels:
SK-Mel-103 xenografts = test: Preliminary in vivo testing CBL2.5-01-Ms-1, N77A7 in methylcellulose; set-up: species or system athymic nude mice; details: after a week of ip injection, prepared in methylcellulose
Description: N77A7 was identified in a small molecule library screen for inhibitors of the N-myc oncoprotein, which is involved in the pathogenesis of the childhood tumor neuroblastoma. The molecule is also effective against c-myc, a family member of N-myc that is overexpressed or amplified in a wide variety of tumors, including melanoma. In vitro, the effects of N77A7 on melanoma cells (e.g., SK-Mel-103) closely reflect the effects of myc shRNA on the same cells. In order to determine whether this in vitro effect can translate into an in vivo anti-tumor effect, we tested 50 mg/kg N77A7 administered daily ip against SK-Mel-103 xenografts established in athymic nude mice. […]

Solubility remark = assay type: physicochemical; details: prepared in methylcellulose
[1] = tested on: C-MYC-activated global gene expression in SK-Mel-103 melanoma cells; test: Global gene expression analysis, Affymetrix U133 Plus 2.0; assay type: cell-based, human; details: 4 μM, 48 hours
Method: FIG. 13 illustrates a comparison of changes in global gene expression caused by depletion of C-MYC via shRNA or by treatment with N77A7.
SK-Mel-103 melanoma cells were infected with control- or MYC shRNA-expressing lentiviruses or treated with DMSO or 4 μM of N77A7. In 48 hours after lentiviral infection or incubation with the chemicals, cells were collected, RNA was isolated and subjected to global expression analysis using Affymetrix GeneChip® Human Genome U133 Plus 2.0 Platform. A linear model specifically designed for microarray analysis was applied to the data. Differentially expressed probe sets were detected using a nested F-test approach. An adjusted p-value of 0.005 was used to assess significance, adjusting for multiple comparisons using false discovery rate. The obtained results are schematically represented in FIG. 13. It was determined that incubation with N77A7 negatively affected expression of 820 genes by ≧2 fold (591+229, FIG. 13). […] Therefore it is logical to expect that the number of genes whose expression is suppressed both by MYC-shRNA and N77A7 should be higher than the number of genes whose expression is induced by both treatments.

[2] = tested on: Myc+ fibroblasts (HO15.19 Myc-null cells with C-MYC re-expression); test: Stable-isotope tracing, 13C labeling and uptake/secretion of metabolites; assay type: cell-based, rat; details: 13C-glucose, 24 hrs, Myc+ cells treated
Method: Experiments were perform and data were analyzed as described in FIG. 14. Cellular measurements are mean±SD of 3 samples.

HO-null cells = test: Secondary filter for Myc specificity: cell growth inhibition, methylene blue staining; assay type: cell-based; details: Rattus norvegicus, 72 h, read-out: ID50 HO-null
Method: FIG. 4 illustrates the myc specificity of tested compounds. Rat1a cells expressing c-myc, L-myc or N-myc or lacking any Myc (null) were treated for 72 h with a range of hit compound concentrations. The cells were then fixed and stained with methylene blue and the percentage of cells in the presence of compound compared to DMSO only control was calculated.
Validated hits were divided into classes when two or more compounds shared significant structural similarity. The ID50 for N-myc transactivation (the inhibitory dose resulting in 50% decrease in luciferase activity) for each hit was calculated from the dose-response N-myc responsive reporter assay. Compounds within each class were ranked by their ID50 for N-myc transactivation and the best compounds within each class were chosen for further studies. In addition, the best of the structurally unique compounds were also analyzed. A total of 46 hits were passed through a secondary filter designed to determine the specificity of the hits for Myc proteins. For this filter, we used a panel of cell lines derived from Rat1a cells (kindly provided by Michael Cole, Dartmouth University): HO-null-c-Myc deficient cells due to homologous recombination that express neither N-myc nor L-myc HO-c-Myc, HO-L-myc and HO-N-myc derived by retroviral transduction of the corresponding Myc genes into HO-null cells. Since each cell line expresses only a single Myc or no Myc family members, we could identify compounds that act through Myc family members as well as which Myc family members. […] The 18 Myc-specific compounds identified during the screening and filtering process are presented in Table 1 and represent distinct classes of molecules, including pyrazoles (e.g., N147A7, N47E10, N147G5), tetrazoles (e.g., N77A7) and 3-bromophenol (e.g., N4G6).

Structure (SMILES): CCN(CC)c1ccc(/C=N/NC(=O)Cn2nnc(-c3ccccc3)n2)c(O)c1 [Compound N77A7]
- peritonitis (SK-Mel-103 xenografts): severe peritonitis
- solubility (Solubility remark): poorly soluble
- number of genes whose expression was negatively affected by ≧2 fold [1]: 820 genes
- number of these genes also suppressed ≧2 fold by MYC shRNA [1]: 591 genes
- share of genes induced ≧2 fold also upregulated ≧2 fold by MYC shRNA [1]: 47.1%
- share of suppressed genes also suppressed ≧2 fold by MYC shRNA [1]: 72.1%
- metabolic phenotype [2]: metabolic phenotype similar to Myc-null cells
- IC50 (HO-null cells): 3.64 µM

Source: patent US9387213B2, “Small molecules inhibiting oncoprotein Myc” (Health Research, Inc., priority 2012, dated 2016)
